The values below are quoted from earlier work in US11747352B2 (Concordia University, Inc., priority 2017, dated 2023).

The structures appear in SMILES notation.

The conditions of the first data set: Table CYP1A2; cited from earlier work.
Turning to `COc1ccc2cccc(CCNC(C)=O)c2c1` [Agomelatine], the “HALF LIFE” value is 1 to 2 h.
Turning to `CN1CCN(C2=Nc3cc(Cl)ccc3Nc3ccccc32)CC1` [Clozapine], the “HALF LIFE” value is 4 to 66 h.
As for `CN(C)CCC=C1c2ccccc2C=Cc2ccccc21` [Cyclobenzaprine], the “HALF LIFE” value is 8 to 37 h.
For the compound `COCCCC/C(=N\OCCN)c1ccc(C(F)(F)F)cc1` [Fluvoxamine], the “HALF LIFE” value was ~14 to 16 h.
For the compound `O=C(CCCN1CCC(O)(c2ccc(Cl)cc2)CC1)c1ccc(F)cc1` [Haloperidol], the “HALF LIFE” value is 14 to 37 h.
Regarding `COc1ccc2[nH]cc(CCNC(C)=O)c2c1` [Melatonin], the “HALF LIFE” value was 0.583 to 0.833 h.
`Cc1cc2c(s1)Nc1ccccc1N=C2N1CCN(C)CC1` [Olanzapine]: the “HALF LIFE” value was 21 to 54 h.
Consider `Cc1nccn1CC1CCc2c(c3ccccc3n2C)C1=O` (centres unmarked) [Ondansetron], for which the “HALF LIFE” value is 3 to 6 h.
Consider `CC(=O)Nc1ccc(O)cc1` [Paracetamol], for which the “HALF LIFE” value is 1 to 4 h.

The same data set, now with this note: Table CYP2C9; cited from earlier work.
`O=C(O)Cc1ccccc1Nc1c(Cl)cccc1Cl` [Diclofenac]: the “HALF LIFE” value is 1.9 to 2.2 h.
Turning to `CCC1=C(C)CN(C(=O)NCCc2ccc(S(=O)(=O)NC(=O)N[C@H]3CC[C@H](C)CC3)cc2)C1=O` [Glimepiride], the “HALF LIFE” value was 5 to 9.2 h.

The same data set, now with this note: Table CYP2D6; cited from earlier work.
On to `C=CCc1ccccc1OCC(O)CNC(C)C` (centres unmarked) [Alprenolol], for which the “HALF LIFE” value is 2 to 3 h.
On to `CN[C@@H](C)Cc1ccccc1` [Dextromethamphetamine], for which the “HALF LIFE” value is 12 h.
With `O=C(CCCN1CCC(O)(c2ccc(Cl)cc2)CC1)c1ccc(F)cc1` [Haloperidol], the “HALF LIFE” value was 14 to 37 h.
In the case of `COc1cc(C(C)=O)ccc1OCCCN1CCC(c2noc3cc(F)ccc23)CC1` [Iloperidone], the “HALF LIFE” value was 18 to 33 h.
Regarding `CCN(CC)CCNC(=O)c1cc(Cl)c(N)cc1OC` [Metoclopramide], the “HALF LIFE” value is 5 to 6 h.
As for `COCCc1ccc(OCC(O)CNC(C)C)cc1` (centres unmarked) [Metoprolol], the “HALF LIFE” value is 3 to 7 h.
In the case of `Cc1cc(-c2ccccc2)nnc1NCCN1CCOCC1` [Minaprine], the “HALF LIFE” value is 2 to 2.5 h.
Regarding `CN(C)C[C@H]1CCCC[C@]1(O)c1cccc(O)c1` [O-desmethyltramadol], the “HALF LIFE” value is 9 h.
On to `Cc1nccn1CC1CCc2c(c3ccccc3n2C)C1=O` (centres unmarked) [Ondansetron], for which the “HALF LIFE” value was 3 to 6.2 h.
On to `Fc1ccc([C@@H]2CCNC[C@H]2COc2ccc3c(c2)OCO3)cc1` [Paroxetine], for which the “HALF LIFE” value is 15 to 21 h.
With `C1CCC(C(CC2CCCCN2)C2CCCCC2)CC1` (centres unmarked) [Perhexiline], the “HALF LIFE” value is 12 to 18 h.
Consider `OCCN1CCN(CCCN2c3ccccc3Sc3ccc(Cl)cc32)CC1` [Perphenazine], for which the “HALF LIFE” value is 9 to 12 h.
Regarding `CC(CN1c2ccccc2Sc2ccccc21)N(C)C` (centres unmarked) [Promethazine], the “HALF LIFE” value was 16 to 19 h.
`CCN1CCC[C@H]1CNC(=O)c1c(OC)ccc(Br)c1OC` [Remoxipride]: the “HALF LIFE” value was 3 to 6 h.
`Cc1nc2n(c(=O)c1CCN1CCC(c3noc4cc(F)ccc34)CC1)CCCC2` [Risperidone]: the “HALF LIFE” value is 3 to 20 h.

The data set is the same for the next values; noted with them: Table CYP3A4; cited from earlier work.
As for `CC(=O)O[C@H]1C(=O)[C@@]2(C)[C@H]([C@H](OC(=O)c3ccccc3)[C@]3(O)C[C@H](OC(=O)[C@H](O)[C@@H](NC(=O)c4ccccc4)c4ccccc4)C(C)=C1C3(C)C)[C@]1(OC(C)=O)CO[C@@H]1C[C@@H]2O` [Paclitaxel], the “HALF-LIFE” value was 13.1 to 57.7 h.

The same data set, now with this note: in vivo; cited from earlier work.
Turning to `COc1ccc2c3c1O[C@H]1[C@@H](O)C=C[C@H]4[C@@H](C2)N(C)CC[C@@]341` [Codeine], the “HALF LIFE” value is 2.5 to 3 h.
`CCN[C@@H](C)Cc1cccc(C(F)(F)F)c1` [Dexfenfluramine]: the “HALF LIFE” value is 17 to 20 h.
As for `COc1ccc2c(c1)[C@]13CCCC[C@@H]1[C@H](C2)N(C)CC3` [Dextromethorphan], the “HALF LIFE” value is 1.4 to 3.9 h.
As to `COc1ccc2c3c1O[C@H]1C(=O)CC[C@H]4[C@@H](C2)N(C)CC[C@]314` [Hydrocodone], the “HALF LIFE” value is 7 to 9 h.
Take `CCC1(c2ccccc2)C(=O)NC(=O)N(C)C1=O` (centres unmarked) [Methylphenobarbital]: the “HALF-LIFE” value was 11 to 67 h.
